This passage reports IC50 results from patent publication US10947251B2, “Therapeutic compounds and methods of use thereof” (GENENTECH, INC., priority 2018, dated 2021).

Assay [1] has as its target T1, hNav1.7 (Homo sapiens (Human), UniProt Q15858). As to the kind of experiment: Tritiated compound binding to membranes from cells heterologously expressing hNav1.7 and the β1 subunit (LBA). Conditions: competitive binding vs [3H]compound, membranes with hNav1.7 and β1 subunit; read-out: Nav1.7 LBA EVO IC50.
The target of assay [2] is T1, hNav1.7. As to the kind of experiment: Electrophysiological assay (EP), voltage clamp on Syncropatch 384PE. It is filed as cell-based. Conditions: CHO cells expressing Nav1.7, holding potential −50 mV, 7.5 min compound incubation; read-out: EP_SP hNav1.7 EVO IC50. For orientation: Patch clamp records ionic current or voltage across a cell membrane.

Structures are written as SMILES.

Broadly, the IC50 is the midpoint of a concentration-inhibition curve. `COc1cc(-c2cccc(C(F)(F)F)c2F)c(F)cc1N1C(=O)CO[C@H]2CN(S(=O)(=O)Nc3ccon3)CC[C@@H]21` [Example 12, (4aS,8aS)-1-(2,2′-difluoro-5-methoxy-3′-(trifluoromethyl)-[1,1′-biphenyl]-4-yl)-N-(isoxazol-3-yl)-2-oxohexahydro-1H-pyrido[3,4-b][1,4]oxazine-6(7H)-sulfonamide]: the IC50 came out at 131 nM at hNav1.7 [1] and 6.83 nM at hNav1.7 [2].

`COc1cc(-c2cccc(OC(F)(F)F)c2)c(F)cc1N1C(=O)CO[C@H]2CN(S(=O)(=O)Nc3ccon3)CC[C@@H]21` [Example 30, (4aS,8aS)-1-(2-fluoro-5-methoxy-3′-(trifluoromethoxy)-[1,1′-biphenyl]-4-yl)-N-(isoxazol-3-yl)-2-oxohexahydro-H-pyrido[3,4-b][1,4]oxazine-6(7H)-sulfonamide]: the IC50 on hNav1.7 [1] was determined as 35.6 nM; on hNav1.7 [2], 2.35 nM.
